{
  "source": "patent US20240350402A1",
  "about": "“TOPICAL DRUG TREATMENT TO PREVENT OR REDUCE CORNEAL SCARRING” (The Cleveland Clinic Foundation, priority 2021, published 2024)",
  "key": {"[1]": {"test_system": "rabbit corneas after alkali burn injury", "assay": "Alkali burn model: slit lamp opacity area and intensity (ImageJ)", "format": "in vivo", "conditions": "alkali burn 1N NaOH; topical six times per day, one month; 0.8 mg/ml losartan, 1% prednisolone acetate", "experimental": "All animal treatments and care were approved by the Institutional Animal Care and Use Committee (IACUC) at the Cleveland Clinic Foundation (Cleveland, OH, USA) and the Animal Care and Use Review Office of the Department of the Army (Fort Detrick, MD). All rabbits were treated in accordance with the tenets of the ARVO Statement for the Use of Animals in Ophthalmic and Vision Research. Sixteen 10- to 15-week-old female New Zealand White rabbits weighing 2.5 to 3.0 kg each were included in this example. […]\nAt one month after sodium hydroxide exposure and treatments, with the rabbits under ketamine-xylazine general anesthesia, the eyes were dilated with two drops of 1% tropicamide (Akom Co., Lake Forest, IL) for thirty minutes. […] For each study eye, the total area of opacity was determined by outlining the opacity with the freehand selection tool using ImageJ 1.53a analysis software calibrated to mm^2. The “raw internal density” in pixels for the opacified area in each cornea was also determined using ImageJ. […]"}, "[2]": {"test_system": "corneal neovascularization (CNV)", "assay": "Alkali burn model: central corneal neovascularization (corneal angiography)", "format": "in vivo, rabbit", "conditions": "four corneas in each group, topical six times per day, one month", "experimental": "(§1) Alkali injuries were produced in one eye of rabbits with previously published methods^10 using 1N sodium hydroxide (Sigma, St. Louis, MO) in balanced salt solution (BSS, 0.64% sodium chloride, 0.075% potassium chloride, 0.048% calcium chloride dihydrate, […] magnesium chloride hexahydrate, 0.39% sodium acetate trihydrate, 0.17% sodium citrate dihydrate, pH 7.5, Alcon, H. Worth, TX) and a 5 mm diameter circular Whatman No. 1 filter paper (Cat #1001-6508, Fisher Scientific) wetted with 100 μl of 1N NaOH solution. Following the alkali burn injury, the cornea was irrigated profusely with BSS. Each injured cornea also received one drop of ciprofloxacin (Alcon, Ft. Worth, TX, USA) ten minutes after surgery and four times a day for one week and at least 15 minutes apart from the study medications.\nWorth TX), at least 5 minutes apart, or 4) 50 μl of BSS.\nAll corneas had fluorescent angiography at the peak of dye passage in the cornea immediately after injection of 1.5 ml of 10% sodium fluorescein (McKesson, Irvine, TX) in the central ear vein with the slit lamp system and digital camera system using a “barrier filter” that only transmitted 520-530 nm, the peak of fluorescein emission, with broad illumination of the cornea, as previously described.^11"}, "[3]": {"test_system": "α-SMA-positive myofibroblasts", "assay": "Alkali burn model: IHC α-SMA-positive stromal area and intensity (ImageJ)", "format": "in vivo, rabbit", "conditions": "one month", "experimental": "as §1\nWorth TX), at least 5 minutes apart, or 4) 50 μl of BSS. […]\nThe area of the α-SMA-positive stroma in mm^2 and the total α-SMA opacity in pixels were quantitated using standardized images obtained with a 10× objective on a Leica DM6B upright microscope equipped with an automated stage and Leica 7000 T camera using the LAS X software (Leica Microsystems, GmbH, Wetzlar, Germany). The means of three central corneal sections were analyzed from each cornea to provide the area of α-SMA-positive stroma and the total α-SMA opacity. The area of α-SMA-positive stroma in mm^2 for each cornea was determined from full diameter and thickness central corneal section images (all converted to 300 DPI, 885 width×500 height, files with identical +50% brightness increase in Photoshop for all images) with the ImageJ 1.53a analysis software using the freehand selection tool to delineate the area(s) of α-SMA-positive staining. […] In these same sections for each cornea, the total α-SMA-positive intensity in pixels was also determined with ImageJ, similarly by using the summation if separate α-SMA-positive areas were present. […]"}, "[4]": {"test_system": "collagen type IV", "assay": "-9D PRK model: IHC stromal collagen type IV pixels (ImageJ)", "format": "in vivo, rabbit", "conditions": "losartan-treated group, one month", "protocol": "Twelve female 12- to 15-week-old New Zealand white rabbits weighing 2.5 to 3 kg each were included. Starting 24 hours prior to surgery and continuing 5 days after PRK, all rabbits received 60 mL children's liquid acetaminophen (Johnson & Johnson, Ft. Washington, PA, USA) per 1 L of drinking water. One eye of each rabbit was randomly selected to have −9.0 D (on myopia scale) PRK and received 2 drops of topical 1% proparacaine hydrochloride (Alcon, Fort Worth, TX, USA) prior to the surgery.\nNo corticosteroids were administered in either group.\nCorneal Cryo-Fixation and Sectioning Rabbits were euthanized while under ketamine-xylazine general anesthesia with 100 mg/kg Beuthanasia (Shering-Plough, Kenilworth, NJ, USA) by intravenous injection followed by bilateral pneumothorax. The corneo-scleral rims were removed with sharp Westcott scissors (Fairfield, CT, USA) and 0.12 forceps (Storz, St Louis, MO, USA). […]\nAll images were converted to 300 DPI 900 pixel width×672 pixel height images with Photoshop 22.1.1 (Adobe, San Jose, CA). The mean pixels of stromal α-SMA or stromal collagen type IV were determined in a 900-pixel wide×235-pixel high rectangle (for either α-SMA or collagen type IV quantitation) with ImageJ in three sections for each cornea using the image panels showing only the color of interest. […]"}},
  "data": [
    {"smiles": "CCCCc1nc(Cl)c(CO)n1Cc1ccc(-c2ccccc2-c2nn[nH]n2)cc1", "note": "[losartan]", "values": [
      {"measurement": "total opacity intensity in pixels (ImageJ) vs BSS vehicle group", "setting": "[1]", "result": "significantly different"},
      {"measurement": "corneas in which central corneal neovascularization developed", "setting": "[2]", "result": "two"},
      {"measurement": "total α-SMA area vs vehicle control group", "setting": "[3]", "result": "trend"},
      {"measurement": "localization of α-SMA-positive myofibroblasts in the stroma", "setting": "[3]; topical six times per day", "result": "confined mostly to the posterior half of the stroma"},
      {"measurement": "collagen type IV localization (IHC)", "setting": "[4]", "result": "localized primarily to the epithelial basement membrane"}
    ]}
  ]
}
